Source: the supplement of paper PMC8149375

Tests used:
Details in all cases: treatment: drug + dasatinib (fixed dose, not stated); 5 days
769-P [1] = experiment: GI50 of drug in presence of dasatinib; higher = less potent
Procedure: (§1)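 Primary HTS combination arm: 8 RCC cell lines treated with 8 doses (up to 10 uM) of each library drug plus a fixed dose of dasatinib (dose not stated) for 5 days; viability read by CellTiter-Glo and normalised to DMSO. GI50 was fitted with XLfit, AUC is the area under the dose-response curve, and minimum viability is the lowest fraction of DMSO viability across doses.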

786-O [2] = experiment: as above
Procedure: as §1

A498 [3] = experiment: as above
Procedure: as §1

ACHN [4] = experiment: as above
Procedure: as §1

CAKI-1 [5] = experiment: as above
Procedure: as §1

SN12C [6] = experiment: as above
Procedure: as §1

TK-10 [7] = experiment: as above
Procedure: as §1

UO-31 [8] = experiment: as above
Procedure: as §1

769-P [9] = experiment: minimum viability across doses, drug + dasatinib, relative to DMSO (fraction); higher = less growth inhibition
Procedure: as §1

786-O [10] = experiment: as above
Procedure: as §1

A498 [11] = experiment: as above
Procedure: as §1

ACHN [12] = experiment: as above
Procedure: as §1

CAKI-1 [13] = experiment: as above
Procedure: as §1

SN12C [14] = experiment: as above
Procedure: as §1

TK-10 [15] = experiment: as above
Procedure: as §1

UO-31 [16] = experiment: as above
Procedure: as §1

769-P [17] = experiment: AUC of dose-response viability curve, drug + dasatinib, normalised to DMSO (arbitrary (AUC of normalised viability)); higher = less growth inhibition
Procedure: as §1

786-O [18] = experiment: as above
Procedure: as §1

A498 [19] = experiment: as above
Procedure: as §1

ACHN [20] = experiment: as above
Procedure: as §1

CAKI-1 [21] = experiment: as above
Procedure: as §1

SN12C [22] = experiment: as above
Procedure: as §1

TK-10 [23] = experiment: as above
Procedure: as §1

UO-31 [24] = experiment: as above
Procedure: as §1

Structure (SMILES)	GI50 of drug (786-O [2])	GI50 of drug (ACHN [4])	GI50 of drug (769-P [1])	GI50 of drug (A498 [3])	GI50 of drug (CAKI-1 [5])	GI50 of drug (SN12C [6])	GI50 of drug (TK-10 [7])	GI50 of drug (UO-31 [8])	minimum viability across doses (769-P [9])	minimum viability across doses (786-O [10])	minimum viability across doses (A498 [11])	minimum viability across doses (ACHN [12])	minimum viability across doses (CAKI-1 [13])	minimum viability across doses (SN12C [14])	minimum viability across doses (TK-10 [15])	minimum viability across doses (UO-31 [16])	AUC of dose-response viability curve (769-P [17])	AUC of dose-response viability curve (786-O [18])	AUC of dose-response viability curve (A498 [19])	AUC of dose-response viability curve (ACHN [20])	AUC of dose-response viability curve (CAKI-1 [21])	AUC of dose-response viability curve (SN12C [22])	AUC of dose-response viability curve (TK-10 [23])	AUC of dose-response viability curve (UO-31 [24])
COc1cc(Nc2ncc(F)c(Nc3ccc4c(n3)NC(=O)C(C)(C)O4)n2)cc(OC)c1OC [R406(free base)] + Cc1nc(Nc2ncc(C(=O)Nc3c(C)cccc3Cl)s2)cc(N2CCN(CCO)CC2)n1 [dasatinib]	571 nM	32 nM	1530 nM	> 10000 nM	231 nM	1390 nM	1380 nM	1610 nM	0.13	0.168	0.591	0.0361	0.0291	0.189	0.348	0.0124	2.08	1.77	3.18	1.11	1.54	2.05	2.19	3.16
COc1cc(Nc2ncc(F)c(Nc3ccc4c(n3)N(COP(=O)(O)O)C(=O)C(C)(C)O4)n2)cc(OC)c1OC [R788 (Fostamatinib)] + Cc1nc(Nc2ncc(C(=O)Nc3c(C)cccc3Cl)s2)cc(N2CCN(CCO)CC2)n1 [dasatinib]	366 nM	183 nM	993 nM	> 10000 nM	195 nM	983 nM	963 nM	2400 nM	0.0614	0.199	0.61	0.04	0.00427	0.179	0.254	0.0153	2	1.88	3.69	1.45	1.47	2.02	2.16	3.58
CC[C@H](CO)Nc1nc(NCc2ccccc2)c2ncn(C(C)C)c2n1 [Roscovitine (Seliciclib, CYC202)] + Cc1nc(Nc2ncc(C(=O)Nc3c(C)cccc3Cl)s2)cc(N2CCN(CCO)CC2)n1 [dasatinib]	4900 nM	3630 nM	> 10000 nM	> 10000 nM	> 10000 nM	> 10000 nM	> 10000 nM	9070 nM	0.595	0.259	0.847	0.266	0.514	0.669	0.675	0.272	2.52	2.32	3.29	2.15	2.54	2.52	2.74	3.04
CN1CCN(CCOc2cc(OC3CCOCC3)c3c(Nc4c(Cl)ccc5c4OCO5)ncnc3c2)CC1 [Saracatinib (AZD0530)] + Cc1nc(Nc2ncc(C(=O)Nc3c(C)cccc3Cl)s2)cc(N2CCN(CCO)CC2)n1 [dasatinib]	2000 nM	366 nM	311 nM	> 10000 nM	878 nM	> 10000 nM	709 nM	1090 nM	0.0614	0.333	0.616	0.192	0.14	0.536	0.102	0.158	1.68	2.28	3.19	1.79	2.01	2.39	2.19	2.51

Further lines, with some results ahead:

GI50 of drug (786-O [2])	GI50 of drug (ACHN [4])	Structure (SMILES)	GI50 of drug (769-P [1])	GI50 of drug (A498 [3])	GI50 of drug (CAKI-1 [5])	GI50 of drug (SN12C [6])	GI50 of drug (TK-10 [7])	GI50 of drug (UO-31 [8])	minimum viability across doses (769-P [9])	minimum viability across doses (786-O [10])	minimum viability across doses (A498 [11])	minimum viability across doses (ACHN [12])	minimum viability across doses (CAKI-1 [13])	minimum viability across doses (SN12C [14])	minimum viability across doses (TK-10 [15])	minimum viability across doses (UO-31 [16])	AUC of dose-response viability curve (769-P [17])	AUC of dose-response viability curve (786-O [18])	AUC of dose-response viability curve (A498 [19])	AUC of dose-response viability curve (ACHN [20])	AUC of dose-response viability curve (CAKI-1 [21])	AUC of dose-response viability curve (SN12C [22])	AUC of dose-response viability curve (TK-10 [23])	AUC of dose-response viability curve (UO-31 [24])
1560 nM	2020 nM	CC(C)(C)c1cc(NC(=O)Nc2ccc(-c3cn4c(n3)sc3cc(OCCN5CCOCC5)ccc34)cc2)no1 [Quizartinib (AC220)] + Cc1nc(Nc2ncc(C(=O)Nc3c(C)cccc3Cl)s2)cc(N2CCN(CCO)CC2)n1 [dasatinib]	2370 nM	6270 nM	1080 nM	> 10000 nM	> 10000 nM	> 10000 nM	0.432	0.256	0.115	0.315	0.378	0.627	0.622	0.859	2.19	2.25	2.87	1.89	2.02	2.29	2.54	3.94
724 nM	173 nM	COc1cc(Nc2ncc(F)c(Nc3ccc4c(n3)NC(=O)C(C)(C)O4)n2)cc(OC)c1OC.O=S(=O)(O)c1ccccc1 [R406] + Cc1nc(Nc2ncc(C(=O)Nc3c(C)cccc3Cl)s2)cc(N2CCN(CCO)CC2)n1 [dasatinib]	2200 nM	> 10000 nM	240 nM	908 nM	1580 nM	1570 nM	0.139	0.232	0.675	0.0817	0.0338	0.235	0.347	0.0103	2.23	1.91	3.28	1.71	1.53	2.04	2.22	2.12
5020 nM	3300 nM	FC(F)(F)c1ccc(Nc2nc3cc(Oc4ccnc(-c5ncc(C(F)(F)F)[nH]5)c4)ccc3[nH]2)cc1 [Raf265 derivative] + Cc1nc(Nc2ncc(C(=O)Nc3c(C)cccc3Cl)s2)cc(N2CCN(CCO)CC2)n1 [dasatinib]	5010 nM	> 10000 nM	3550 nM	> 10000 nM	9070 nM	> 10000 nM	0.318	0.241	0.633	0.137	0.173	0.484	0.476	0.551	2.37	2.47	3.35	2.21	2.35	2.47	2.73	3.44
